Measurements as given in US9522914B2, “Azole derivative” (TAISHO PHARMACEUTICAL CO., LTD, priority 2011, dated 2016).

Target: Human V1b receptor (Homo sapiens (Human), UniProt P47901)
Experiment: Binding Test for V1b Receptor ([3H]AVP, crude membrane preparation of 293FT cells)
Conditions: inhibition of [3H]AVP binding (0.4 to 1 nmol/L), room temperature, 60 minutes
Method: Binding Test for V1b Receptor
Human V1b receptor was transiently expressed in 293FT cells (Invitrogen). The cells were collected and then homogenated in a 15 mmol/L tris-hydrochloric acid buffer (pH 7.4 and containing 2 mmol/L magnesium chloride, 0.3 mmol/L ethylenediaminetetracetic acid, and 1 mmol/L glycol ether diaminetetraacetic acid). The resulting homogenate was centrifuged at 50,000×g at 4° C. for 20 minutes. The precipitate was resuspended in a 75 mmol/L tris-hydrochloric acid buffer (pH 7.4 and containing 12.5 mmol/L magnesium chloride, 0.3 mmol/L ethylenediaminetetracetic acid, 1 mmol/L glycol ether diaminetetraacetic acid, and 250 mmol/L sucrose) to give a crude membrane preparation, which was stored at −80° C. until the binding test was initiated. In the binding test, the crude membrane preparation was diluted with a 50 mmol/L tris-hydrochloric acid buffer (pH 7.4 and containing 10 mmol/L magnesium chloride and 0.1% bovine serum albumin) and mixed with each test compound and [^3H]AVP (final concentration: 0.4 to 1 nmol/L), followed by incubation at room temperature for 60 minutes. The test compound was serially diluted with DMSO so that it would have final concentrations of 0.01 nmol/L to 1 μmol/L at the time of mixing. After the incubation, the mixture was suction filtered through a GF/C filter that was preliminarily impregnated with 0.3% polyethyleneimine. The GF/C filter was dried and after adding a scintillator, the residual radioactivity on the filter was measured using TopCount (PerkinElmer Inc.). The radioactivity in the presence of unlabeled AVP at […] was defined as 0%, and the radioactivity in the absence of unlabeled AVP was defined as 100%. A dose-response curve was plotted from radio activities in the presence of a test compound at various concentrations, and the 50% inhibitory concentration (IC50 value) of the test compound was calculated.

Human V1b receptor, sequence (P47901 whole entry): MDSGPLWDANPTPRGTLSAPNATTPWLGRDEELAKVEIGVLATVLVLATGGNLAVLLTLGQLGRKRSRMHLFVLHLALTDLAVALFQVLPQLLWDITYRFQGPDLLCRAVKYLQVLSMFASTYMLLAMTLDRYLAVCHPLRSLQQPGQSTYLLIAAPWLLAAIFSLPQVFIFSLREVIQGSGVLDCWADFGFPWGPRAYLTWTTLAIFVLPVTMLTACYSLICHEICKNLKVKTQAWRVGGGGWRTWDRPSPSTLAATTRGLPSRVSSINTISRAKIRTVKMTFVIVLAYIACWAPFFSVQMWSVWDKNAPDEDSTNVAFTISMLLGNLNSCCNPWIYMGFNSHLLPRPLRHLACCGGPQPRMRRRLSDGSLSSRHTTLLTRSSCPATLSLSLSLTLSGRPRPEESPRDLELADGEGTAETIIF

SMILES	IC50 [µM]
CC(C)NC(=O)Cc1nn(-c2ccc(CCN3CCC(C)(O)CC3)cc2)c(=O)n1-c1cccc(Cl)c1 [Example D-55, 2-[4-(3-chlorophenyl)-1-{4-[2-(4-hydroxy-4-methylpiperidin-1-yl)ethyl]phenyl}-5-oxo-4,5-dihydro-1H-1,2,4-triazol-3-yl]-N-(propan-2-yl)acetamide]	0.1 to 1
CC(C)(C)NC(=O)Cc1nn(-c2ccc(CCN3C4CCC3COC4)cn2)c(=O)n1-c1cccc(Cl)c1 [Example D-16, N-tert-butyl-2-[4-(3-chlorophenyl)-1-{5-[2-(3-oxa-8-azabicyclo[3.2.1]oct-8-yl)ethyl]pyridin-2-yl}-5-oxo-4,5-dihydro-1H-1,2,4-triazol-3-yl]acetamide]	0.01 to 0.1
COc1cccc(-c2nc(-c3ccc(CCN4CCCC4)cc3)nn2CC(=O)NC(C)C)c1 [Example B-21, 2-[5-(3-methoxyphenyl)-3-{4-[2-(pyrrolidin-1-yl)ethyl]phenyl}-1H-1,2,4-triazol-1-yl]-N-(propan-2-yl)acetamide]	0.01 to 0.1
CC(C)NC(=O)Cc1nn(-c2ccc(CCN3C4CCC3COC4)cc2)c(=O)n1-c1cccc(Cl)c1 [Example D-03, 2-[4-(3-chlorophenyl)-1-{4-[2-(3-oxa-8-azabicyclo[3.2.1]oct-8-yl)ethyl]phenyl}-5-oxo-4,5-dihydro-1H-1,2,4-triazol-3-yl]-N-(propan-2-yl)acetamide]	0.014
CC(C)NC(=O)Cc1nn(-c2ccc(CCN3CCOCC3C)cc2)c(=O)n1-c1cccc(Cl)c1 [Example D-53, 2-[4-(3-chlorophenyl)-1-{4-[2-(3-methylmorpholin-4-yl)ethyl]phenyl}-5-oxo-4,5-dihydro-1H-1,2,4-triazol-3-yl]-N-(propan-2-yl)acetamide]	0.01 to 0.1
CC(C)(C)NC(=O)Cc1nn(-c2ccc(CCN3CCOCC3)cn2)c(=O)n1-c1cccc(Cl)c1 [Example D-15, N-tert-butyl-2-[4-(3-chlorophenyl)-1-{5-[2-(morpholin-4-yl)ethyl]pyridin-2-yl}-5-oxo-4,5-dihydro-1H-1,2,4-triazol-3-yl]acetamide]	0.01 to 0.1
CC(C)NC(=O)Cc1nn(-c2ccc(CCN3C[C@@H](C)O[C@@H](C)C3)cc2)c(=O)n1-c1cccc(Cl)c1 [Example D-52, 2-[4-(3-chlorophenyl)-1-(4-{2-[(2R,6S)-2,6-dimethylmorpholin-4-yl]ethyl}phenyl)-5-oxo-4,5-dihydro-1H-1,2,4-triazol-3-yl]-N-(propan-2-yl)acetamide]	0.1 to 1
CC(C)NC(=O)Cc1nn(-c2ccc(CCN3CCCC3)cc2)c(=O)n1-c1cccc(Cl)c1 [Example D-45, 2-[4-(3-chlorophenyl)-5-oxo-1-{4-[2-(pyrrolidin-1-yl)ethyl]phenyl}-4,5-dihydro-1H-1,2,4-triazol-3-yl]-N-(propan-2-yl)acetamide]	0.01 to 0.1
COc1cccc(-c2nc(-c3ccc(CCN4CCN(C)CC4)cc3)nn2CC(=O)NC(C)C)c1 [Example B-32, 2-[5-(3-methoxyphenyl)-3-{4-[2-(4-methylpiperazin-1-yl)ethyl]phenyl}-1H-1,2,4-triazol-1-yl]-N-(propan-2-yl)acetamide]	0.1 to 1
Cc1c(-c2cccc(Cl)c2)n(CC(=O)NC(C)C)c(=O)n1-c1ccc(CCN2CCOCC2)cc1 [Example C-20, 2-[5-(3-chlorophenyl)-4-methyl-3-{4-[2-(morpholin-4-yl)ethyl]phenyl}-2-oxo-2,3-dihydro-1H-imidazol-1-yl]-N-(propan-2-yl)acetamide]	0.01 to 0.1
CC(C)NC(=O)Cc1nn(-c2ccc(CCN3CC4(CCOCC4)C3)cc2)c(=O)n1-c1cccc(Cl)c1 [Example D-56, 2-[4-(3-chlorophenyl)-1-{4-[2-(7-oxa-2-azaspiro[3.5]non-2-yl)ethyl]phenyl}-5-oxo-4,5-dihydro-1H-1,2,4-triazol-3-yl]-N-(propan-2-yl)acetamide]	0.01 to 0.1
CC(C)NC(=O)Cc1cn(-c2ccc(CCN3CCOCC3)cc2)nc1-c1cccc(Cl)c1 [Example C-03, 2-[3-(3-chlorophenyl)-1-{4-[2-(morpholin-4-yl)ethyl]phenyl}-1H-pyrazol-4-yl]-N-(propan-2-yl)acetamide]	0.0086
CC(C)NC(=O)Cn1cc(C(=O)NC2CCC(N3CCOCC3)CC2)nc1-c1cccc(Cl)c1 (stereo not drawn) [Example A-47, 2-(3-chlorophenyl)-N-[4-(morpholin-4-yl)cyclohexyl]-1-[2-oxo-2-(propan-2-ylamino)ethyl]-1H-imidazole-4-carboxamide]	0.1 to 1
CC(C)NC(=O)Cn1cc(-c2ccc(CCN3C4CCC3COC4)cn2)nc1-c1cccc(Cl)c1 [Example A-27, 2-[2-(3-chlorophenyl)-4-{5-[2-(3-oxa-8-azabicyclo[3.2.1]oct-8-yl)ethyl]pyridin-2-yl}-1H-imidazol-1-yl]-N-(propan-2-yl)acetamide]	0.0036
CC(C)NC(=O)Cc1nn(-c2ccc(CCN3C(C)COCC3C)cc2)c(=O)n1-c1cccc(Cl)c1 [Example D-60, 2-[4-(3-chlorophenyl)-1-{4-[2-(3,5-dimethylmorpholin-4-yl)ethyl]phenyl}-5-oxo-4,5-dihydro-1H-1,2,4-triazol-3-yl]-N-(propan-2-yl)acetamide]	0.1 to 1
CC(C)NC(=O)Cc1nn(-c2ccc(CCN3CCOCC3)c(F)c2)c(=O)n1-c1cccc(Cl)c1 [Example D-20, 2-[4-(3-chlorophenyl)-1-{3-fluoro-4-[2-(morpholin-4-yl)ethyl]phenyl}-5-oxo-4,5-dihydro-1H-1,2,4-triazol-3-yl]-N-(propan-2-yl)acetamide]	0.02
CCN(CCOC)CCc1ccc(-c2cn(CC(=O)NC(C)C)c(-c3ccc(F)c(OC)c3)n2)cc1 [Example A-32, 2-[4-(4-{2-[ethyl(2-methoxyethyl)amino]ethyl}phenyl)-2-(4-fluoro-3-methoxyphenyl)-1H-imidazol-1-yl]-N-(propan-2-yl)acetamide]	0.1 to 1
CC(C)NC(=O)Cn1nc(-c2ccc(CCN3C4CCC3COC4)cc2)nc1-c1cccc(Cl)c1 [Example B-01, 2-[5-(3-chlorophenyl)-3-{4-[2-(3-oxa-8-azabicyclo[3.2.1]oct-8-yl)ethyl]phenyl}-1H-1,2,4-triazol-1-yl]-N-(propan-2-yl)acetamide]	0.0014
CC(C)NC(=O)Cc1nn(-c2ccc(CCN3C4CCC3COC4)c(F)c2)c(=O)n1-c1cccc(Cl)c1 [Example D-21, 2-[4-(3-chlorophenyl)-1-{3-fluoro-4-[2-(3-oxa-8-azabicyclo[3.2.1]oct-8-yl)ethyl]phenyl}-5-oxo-4,5-dihydro-1H-1,2,4-triazol-3-yl]-N-(propan-2-yl)acetamide]	0.0075
COc1cccc(-n2c(CC(=O)NC(C)C)nn(-c3ccc(CCN4C5CCC4COC5)cn3)c2=O)c1 [Example D-40, 2-[4-(3-methoxyphenyl)-1-{5-[2-(3-oxa-8-azabicyclo[3.2.1]oct-8-yl)ethyl]pyridin-2-yl}-5-oxo-4,5-dihydro-1H-1,2,4-triazol-3-yl]-N-(propan-2-yl)acetamide]	0.1 to 1
CC(C)NC(=O)Cn1c(-c2cccc(Cl)c2)cn(-c2ccc(CCN3CCOCC3)cc2)c1=O [Example C-19, 2-[5-(3-chlorophenyl)-3-{4-[2-(morpholin-4-yl)ethyl]phenyl}-2-oxo-2,3-dihydro-1H-imidazol-1-yl]-N-(propan-2-yl)acetamide]	0.0022
